Measurements taken from patent US8461328B2, “Tricyclic heterocyclic compounds, compositions and methods of use thereof” (Genentech, Inc., priority 2010, dated 2013).
pKi: −log10 of the molar value.

Key:
Assay type in all cases: biochemical
[1] = target: T1, JAK1 (Homo sapiens, UniProt P23458); experiment: JAK1 inhibition (Table 4); settings: read-out: JAK1 Ki
T1 construct: made in house; host or cells: SF9 insect cells (baculovirus)

[2] = target: T2, JAK2 (Homo sapiens, UniProt O60674); experiment: JAK2 inhibition (Table 4); settings: read-out: JAK2 Ki
T2 construct: made in house; host or cells: SF9 insect cells (baculovirus)

[3] = target: T3, JAK3 (Homo sapiens, UniProt P52333); experiment: JAK3 inhibition (Table 4); settings: read-out: JAK3 Ki
T3 construct: made in house; host or cells: SF9 insect cells (baculovirus)

[4] = target: T4, TYK2 (Homo sapiens, UniProt P29597); experiment: TYK2 inhibition (Table 4)
T4 construct: made in house; host or cells: SF9 insect cells (baculovirus)
T4 sequence (P29597 873-1187): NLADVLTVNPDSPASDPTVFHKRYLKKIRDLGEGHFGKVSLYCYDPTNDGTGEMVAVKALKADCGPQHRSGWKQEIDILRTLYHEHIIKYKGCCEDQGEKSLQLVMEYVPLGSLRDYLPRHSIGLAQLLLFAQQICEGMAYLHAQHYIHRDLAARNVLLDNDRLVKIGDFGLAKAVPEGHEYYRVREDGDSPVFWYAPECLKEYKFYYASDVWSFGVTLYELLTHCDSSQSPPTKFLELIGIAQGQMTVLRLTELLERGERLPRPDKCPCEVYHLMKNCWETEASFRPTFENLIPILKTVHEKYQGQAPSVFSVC

T1 sequence (P23458 852-1154): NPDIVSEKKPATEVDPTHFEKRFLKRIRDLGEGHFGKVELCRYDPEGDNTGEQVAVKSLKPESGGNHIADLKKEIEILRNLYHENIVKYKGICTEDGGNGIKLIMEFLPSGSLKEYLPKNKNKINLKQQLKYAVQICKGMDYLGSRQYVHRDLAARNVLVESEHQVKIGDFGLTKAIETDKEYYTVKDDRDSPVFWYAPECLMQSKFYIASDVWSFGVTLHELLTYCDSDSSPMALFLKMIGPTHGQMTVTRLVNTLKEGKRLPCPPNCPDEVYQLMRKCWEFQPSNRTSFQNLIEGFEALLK
T3 sequence (P52333 783-1124): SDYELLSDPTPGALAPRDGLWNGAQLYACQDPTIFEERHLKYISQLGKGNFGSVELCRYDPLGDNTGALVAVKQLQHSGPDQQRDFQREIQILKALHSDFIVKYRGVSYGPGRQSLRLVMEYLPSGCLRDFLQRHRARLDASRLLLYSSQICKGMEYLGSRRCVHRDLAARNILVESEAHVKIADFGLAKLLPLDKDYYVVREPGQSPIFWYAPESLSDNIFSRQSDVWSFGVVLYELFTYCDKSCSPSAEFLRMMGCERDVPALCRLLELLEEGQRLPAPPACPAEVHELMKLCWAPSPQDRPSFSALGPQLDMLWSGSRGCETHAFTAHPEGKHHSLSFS
T2 sequence (O60674 812-1132): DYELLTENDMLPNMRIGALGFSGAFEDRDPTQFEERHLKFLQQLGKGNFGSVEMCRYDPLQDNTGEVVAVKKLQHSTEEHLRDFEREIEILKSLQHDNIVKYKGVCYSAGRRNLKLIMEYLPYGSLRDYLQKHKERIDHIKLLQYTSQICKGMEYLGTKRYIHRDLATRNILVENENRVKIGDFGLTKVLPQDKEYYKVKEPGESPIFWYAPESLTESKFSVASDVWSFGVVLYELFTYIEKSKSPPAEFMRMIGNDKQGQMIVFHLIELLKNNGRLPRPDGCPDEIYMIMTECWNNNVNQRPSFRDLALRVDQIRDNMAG

pKi [1] | pKi [2] | pKi [3] | pKi [4] | Compound
8.36 | 8.18 | 7.37 | 7.75 | O=C(C1CC1F)N1CCC[C@@H](n2cnc3cnc4[nH]ccc4c32)C1 (mixture of isomers) [Example 235, (2-Fluoro-cyclopropyl)-[(R)-3-(6H-1,3,5,6-tetraaza-as-indacen-1-yl)-piperidin-1-yl]-methanone]
8.22 | 7.43 | 7.79 | 6.55 | CCN1CCC(n2c(CCNC(=O)OC)nc3cnc4[nH]ccc4c32)C(F)(F)C1 (centres unmarked) [Example 908, {2-[1-(1-Ethyl-3,3-difluoro-piperidin-4-yl)-1,6-dihydro-1,3,5,6-tetraaza-as-indacen-2-yl]-ethyl}-carbamic acid methyl ester]
6.67 | 5.84 | 6.32 | 5.75 | c1cncc(Cc2nc3cnc4[nH]ccc4c3n2C2CCOCC2)c1 [Example 469, 2-Pyridin-3-ylmethyl-1-(tetrahydro-pyran-4-yl)-1,6-dihydro-1,3,5,6-tetraaza-as-indacene]
7.80 | 7.65 | 7.11 | 6.78 | CS(=O)(=O)CC(=O)N1CCC[C@@H](n2cnc3cnc4[nH]ccc4c32)C1 [Example 79, 2-Methanesulfonyl-1-[(R)-3-(6H-1,3,5,6-tetraaza-as-indacen-1-yl)-piperidin-1-yl]ethanone]
9.14 | 8.55 | 8.11 | 7.68 | N#Cc1cccc(N2CCC(n3cnc4cnc5[nH]ccc5c43)CC2)n1 [Example 94, 4-(6H-1,3,5,6-Tetraaza-as-indacen-1-yl)-3,4,5,6-tetrahydro-2H-[1,2′]bipyridinyl-6′-carbonitrile]
8.49 | 7.94 | 7.43 | 6.95 | CN(CC(F)(F)F)C(=O)NC1CCC(n2cnc3cnc4[nH]ccc4c32)CC1 (centres unmarked) [Example 745, 1-methyl-3-[4-(6H-1,3,5,6-tetraaza-as-indacen-1-yl)-cyclohexyl]-1-(2,2,2-trifluoro-ethyl)-urea]
7.13 | 7.65 | 7.79 | 6.98 | Cc1nc2cnc3[nH]ccc3c2n1C1CCOC(C)(C)C1 (centres unmarked) [Example 178, 1-(2,2-Dimethyl-tetrahydro-pyran-4-yl)-2-methyl-1,6-dihydro-1,2,3,5,6-tetraaza-as-indacene]
7.98 | 7.54 | 7.01 | 6.73 | COCCNC(=O)O[C@H]1CC[C@H](n2cnc3cnc4[nH]ccc4c32)CC1 [Example 595, Trans (2-methoxy-ethyl)-carbamic acid 4-(6H-1,2,3,5,6-tetraaza-as-indacen-1-yl)-cyclohexyl ester]
8.59 | 8.18 | 7.74 | 7.59 | CS(=O)(=O)NC1CCC(n2cnc3cnc4[nH]ccc4c32)C1 (racemic) [Example 630, Racemic trans N-[3-(6H-1,2,3,5,6-tetraaza-as-indacen-1-yl)-cyclopentyl]-methanesulfonamide]
8.91 | 7.87 | 8.23 | 8.14 | OCc1nc2cnc3[nH]ccc3c2n1C1CCNCC1(F)F (racemic) [Example 948, [1-(3,3-Difluoro-piperidin-4-yl)-1,6-dihydro-1,3,5,6-tetraaza-as-indacen-2-yl]-methanol]
7.99 | 7.28 | 6.97 | 7.17 | OCCc1nc2cnc3[nH]ccc3c2n1[C@H]1CCCOC1 [Example 859, (S)-2-[1-(Tetrahydro-pyran-3-yl)-1,6-dihydro-1,3,5,6-tetraaza-as-indacen-2-yl]-ethanol]
7.74 | 7.42 | 6.82 | 6.77 | CC(CC#N)N1CCC(n2c(CCn3cncn3)nc3cnc4[nH]ccc4c32)CC1 (racemic) [Example 394, 3-{4-[2-(2-[1,2,4]Triazol-1-yl-ethyl)-6H-1,3,5,6-tetraaza-as-indacen-1-yl]-piperidin-1-yl}-butyronitrile]
8.46 | 7.95 | 7.85 | 6.71 | OCCc1nc2cnc3[nH]ccc3c2n1C1CCN(Cc2ccccc2)CC1 [Example 82]
7.79 | 7.74 | 7.11 | 7.09 | CC1(C)CC1C(=O)N1CCC[C@@H](n2cnc3cnc4[nH]ccc4c32)C1 (stereo partly drawn) [Example 226, (2,2-Dimethyl-cyclopropyl)-[(R)-3-(6H-1,3,5,6-tetraaza-as-indacen-1-yl)-piperidin-1-yl]-methanone]
8.09 | 7.82 | 6.69 | 7.20 | C[C@]1(O)CC[C@H](n2nnc3cnc4[nH]ccc4c32)CC1 [Example 713, Trans-1-Methyl-4-(6H-1,2,3,5,6-pentaaza-as-indacen-1-yl)-cyclohexanol]
9.01 | 8.51 | 7.16 | 7.68 | O=S1(=O)CCN(C2CCC(n3cnc4cnc5[nH]ccc5c43)CC2)CC1 (centres unmarked) [Example 766, 1-[4-(1,1-Dioxo-thiomorpholin-4-yl)-cyclohexyl]-1,6-dihydro-1,3,5,6-tetraaza-as-indacene]
7.26 | 6.13 | 6.05 | 6.21 | CC(O)c1nc2cnc3[nH]ccc3c2n1C1CCCN(C(=O)C2CC2C)C1 (centres unmarked) [Example 796, {3-[2-(1-Hydroxy-ethyl)-6H-1,3,5,6-tetraaza-as-indacen-1-yl]-piperidin-1-yl}-(2-methyl-cyclopropyl)-methanone]
7.36 | 6.69 | 6.68 | 6.39 | O=C(Cc1nc2cnc3[nH]ccc3c2n1C1CCCOC1)NCCn1ccnc1 (racemic) [Example 975, N-(2-Imidazol-1-yl-ethyl)-2-[1-(tetrahydro-pyran-3-yl)-1,6-dihydro-1,3,5,6-tetraaza-as-indacen-2-yl]-acetamide]
8.15 | 6.93 | 7.43 | 6.96 | CC(O)c1nc2cnc3[nH]ccc3c2n1C1CCN(CCC(F)(F)F)CC1 (centres unmarked) [Example 759, 1-{1-[1-(3,3,3-Trifluoro-propyl)-piperidin-4-yl]-1,6-dihydro-1,3,5,6-tetraaza-as-indacen-2-yl}-ethanol]
9.19 | 8.48 | 7.09 | 6.85 | CS(=O)(=O)c1cccc(CN2CCC(n3cnc4cnc5[nH]ccc5c43)CC2)c1 [Example 91, 1-[1-(3-Methanesulfonyl-benzyl)-piperidin-4-yl]-1,6-dihydro-1,3,5,6-tetraaza-as-indacene]
7.14 | 6.63 | 6.52 | 6.54 | OCCc1nc2cnc3[nH]ccc3c2n1[C@@H]1CCCOC1 [Example 864, (R)-2-[1-(Tetrahydro-pyran-3-yl)-1,6-dihydro-1,3,5,6-tetraaza-as-indacen-2-yl]-ethanol]
8.04 | 8.01 | 6.45 | 7.43 | CC1CN(S(C)(=O)=O)CCC1n1cnc2cnc3[nH]ccc3c21 (racemic) [Example 345, 1-(1-Methanesulfonyl-3-methyl-piperidin-4-yl)-1,6-dihydro-1,3,5,6-tetraaza-as-indacene]
7.74 | 6.64 | 6.70 | 6.43 | FC(F)c1nc2cnc3[nH]ccc3c2n1C1CCNCC1 [Example 307, 2-Difluoromethyl-1-piperidin-4-yl-1,6-dihydro-1,3,5,6-tetraaza-as-indacene]
6.81 | 6.54 | 6.15 | 6.19 | c1cc2c(ncc3ncn(C4CCCCNC4)c32)[nH]1 (single isomer, unassigned) [Example 110, 1-Azepan-3-yl-1,6-dihydro-1,2,3,5,6-tetraaza-as-indacene]
7.81 | 7.44 | 7.74 | 7.02 | CC(CC#N)N1CCC(n2c(CS(C)(=O)=O)nc3cnc4[nH]ccc4c32)CC1 (racemic) [Example 396, 3-[4-(2-Methanesulfonylmethyl-6H-1,3,5,6-tetraaza-as-indacen-1-yl)-piperidin-1-yl]-butyronitrile]
9.22 | 8.35 | 7.95 | 7.64 | Cc1nc2cnc3[nH]ccc3c2n1[C@H]1CC[C@H](NC(=O)OCC(F)F)CC1 [Example 607, Trans[4-(2-methyl-6H-1,2,3,5,6-tetraaza-as-indacen-1-yl)-cyclohexyl]-carbamic acid 2,2-difluoro-ethyl ester]
7.07 | 5.88 | 6.61 | 5.77 | O=C(Cc1nc2cnc3[nH]ccc3c2n1C1CCNCC1)N1CC(F)(F)C1 [Example 269, 1-(3,3-Difluoro-azetidin-1-yl)-2-(1-piperidin-4-yl-1,6-dihydro-1,3,5,6-tetraaza-as-indacen-2-yl)-ethanone]
7.68 | 7.15 | 6.45 | 5.94 | Cn1cc(CN2CCC(n3cnc4cnc5[nH]ccc5c43)CC2)cn1 [Example 68]
7.29 | 7.16 | 7.81 | 5.89 | N#CCCN1CCC(n2c(C3CCOCC3)nc3cnc4[nH]ccc4c32)CC1 [Example 385, 3-{4-[2-(Tetrahydro-pyran-4-yl)-6H-1,3,5,6-tetraaza-as-indacen-1-yl]-piperidin-1-yl}-propionitrile]
